Assay results from patent US5348956A, “Substituted cyclopropylamino-1,3,5-triazines” (UCB S.A., priority 1991, dated 1994).
Read-outs that look alike come from different tables or passages of the source.

Experiments:
[1] = system: bronchospasm induced by serotonin; assay: bronchospasmolytic activity (Konzett and Roessler), bronchospasm induced by serotonin; type: in vivo, Dunkin-Hartley guinea-pig; conditions: Cavia porcellus; intravenous; serotonin-induced bronchospasm; read-out: Doses (ID50), Serotonin
Experimental: (§1) This activity was measured in the Dunkin-Hartley guinea-pig by the method of H. KONZETT and […] (Naunyn Schmiedebergs Arch. exp. Path. […] The anesthetized (urethane) and curarized (gallamine) guinea-pig is placed under assisted respiration. The endotracheal pressure is recorded. […] The compound to be tested is also administered intravenously two minutes before the administration of the spasmogen and then in 3 to 4 cumulative doses in increasing amounts at intervals of 15 minutes. Six animals per compound to be tested and per spasmogen are used.

[2] = system: bronchospasm induced by histamine; assay: bronchospasmolytic activity (Konzett and Roessler), bronchospasm induced by histamine; type: in vivo, Dunkin-Hartley guinea-pig; conditions: Cavia porcellus; intravenous; histamine-induced bronchospasm; read-out: Doses (ID50), Histamine
Experimental: as §1

[3] = system: bronchospasm induced by acetylcholine; assay: bronchospasmolytic activity (Konzett and Roessler), bronchospasm induced by acetylcholine; type: in vivo, Dunkin-Hartley guinea-pig; conditions: Cavia porcellus; intravenous; acetylcholine-induced bronchospasm; read-out: Doses (ID50), Acetylcholine
Experimental: as §1

[4] = system: plantar edema induced by immune complexes; assay: "reverse passive Arthus" (RPA) test, anti-inflammatory and anti-edema activity; type: in vivo, Sprague-Dawley rat; conditions: Rattus norvegicus, intravenous
Experimental: The reaction between a soluble antigen and antibodies in the organism may lead to an acute inflammatory reaction accompanied by release of histamine, modification of vascular permeability and formation of a localized edema. […] To this end, the Arthus reaction is induced by subplantar administration of 0.1 ml of heterologous antivalbumin reaginic serum into the right hind paw and by simultaneous intravenous injection of 1 ml/kg ovalbumin (25 mg/ml). The compound to be tested is administered intravenously 30 seconds before induction of the Arthus reaction, in a least 3 different doses. A group of 6 rats is used per dose of compound to be tested. The volume of the paw is measured by plethysmometry before the Arthus reaction and 3 to 5 hours after induction of the Arthus reaction, both in the control animals and in the treated animals. The effect of a compound on the reduction in the edema for each dose and at each measurement time (3 hours and 5 hours) is expressed in % of the edema observed in the control animals. The doses of the compounds (ID30 in μmole/kg) which inhibit by 30%, on average over all the animals, the volume of the edema observed in the control animals are given in Table VII below.

[5] = system: anaphylactic release of histamine, guinea-pig lung sections; assay: inhibition of the anaphylactic release of histamine (proper effect); type: cell-based, Dunkin-Hartley guinea-pigs; conditions: Cavia porcellus, in vitro, read-out: Minimum inhibitory dose (MID)
Experimental: Dunkin-Hartley guinea-pigs which are first passively sensitized by an intravenous injection of 1 ml of isologous antiovalbumin serum are used. Twenty-four hours after the injection, the lungs are then perfused with a Tyrode buffer to evacuate the blood, and then removed and cut into sections of 1 mm. These sections are divided up into test tubes (3 sections per tube) to give 10 experimental groups of lung sections per guinea-pig. A "positive" control group of lung sections is stimulated by addition of an ovalbumin solution (0.1 mg/ml) to induce the anaphylactic release of histamine and serves to determine the maximum amount of histamine (100%) which can be released. A "negative" control group which is not stimulated by ovalbumin serves to determine the naturally released amount of histamine (spontaneous release). In three other groups, the lung sections are incubated at 37° C. for 30 minutes in the ovalbumin solution in the presence of three different doses of the compound to be tested (one dose per group). […] At this dose, isoprenaline inhibits the release of histamine by 30 to 40%, which is verified on a control group treated only with isoprenaline alone at this dose. In addition, a supplementary control group which is not stimulated by ovalbumin is used to detect a possible spontaneous release of histamine by the highest dose of the compound tested. In each group, the histamine released in the incubation medium is measured by spectrofluorometry (D. P. EVANS et al., Life Sci., 12, (1973), 327-336).

PMN granulocytes = assay: inhibition of the stimulation of PMN granulocytes (chemiluminescence); type: cell-based, Rat; conditions: Rattus norvegicus; 10^-6 mole/l; FMLP 3.2×10^-7 mole/liter; read-out: Residual chemiluminescence
From the text: Polymorphonuclear neutrophil granulocytes (PMN) are cells which are mobilized during inflammatory phenomena and which can be stimulated by various compounds, such as, for example, formylmethionyl-leucylphenylalanine (FMLP) or prostaglandins E (PGE1). The PMN granulocytes respond to these extracellular stimuli with an activation of the oxygen metabolism with release of toxic oxygenated metabolites. An excessive response of the PMN granulocytes may be the cause of a painful inflammation and is also accompanied by a reduction in the level of cyclic adenosine monophosphate (cAMP) in these granulocytes. Consequently, compounds which inhibit the respiratory burst of PMN granulocytes or which increase the level of cAMP can be regarded as very important in the treatment of arthritis and asthma. […] Rat PMN granulocytes (5×10^6 /ml) are preincubated in a phosphate buffer ([…], pH 7.4), containing luminol at a concentration of 10^-5 mole per liter, for 15 minutes at 37° C. and then for 5 minutes in the presence of the compound to be treated at a concentration of 10^-6 mole/liter. […] The luminescence which results from the stimulation is measured by means of an LKB 1251 luminometer according to the method of […] and […] (Infection and Immunology, 37, (1982), 34-39). An experimental cycle lasts 38 seconds. The reaction is repeated 9 times for each compound to be tested and the average of the results obtained is calculated.

toxicity, Irwin's test = type: in vivo; conditions: i.p.; death of two animals out of three within 48 hours
Experimental: Progressive doses of the compound to be tested are administered intraperitoneally to groups of three mice until the lethal dose is reached (dose which causes the death of two animals out of three within 48 hours).

[6] = 3 hours after induction of the Arthus reaction, read-out: Dose (ID30), 3 hours
[7] = 5 hours after induction of the Arthus reaction, read-out: Dose (ID30), 5 hours

Compound `CCCc1nc(NC2CC2)nc(N2CCOCC2)n1` [Compound 1, 2-Cyclopropylamino-4-morpholino-6-n-propyl-1,3,5-triazine] has an ED50 [1] of 0.01 µmol/kg, an ED50 [2] of 0.01 µmol/kg and an ED50 [3] of 0.1 µmol/kg. The ED30 [4, 6] was 2 µmol/kg, the ED30 [4, 7] was 2 µmol/kg and the minimal effective concentration [5] was 0.1 µM. It also gave an activity at 1 µM (PMN granulocytes) of 47% and a Lethal dose (toxicity, Irwin's test) of 898 mg/kg.
Compound `CCc1nc(NC2CC2)nc(N2CCOCC2)n1` [Compound 2] has an ED50 [1] of 0.5 µmol/kg, an ED50 [2] of 0.3 µmol/kg and an ED50 [3] of 0.5 µmol/kg. It also gave an ED30 [4, 6] of 2.3 µmol/kg, an ED30 [4, 7] of 0.7 µmol/kg and a minimal effective concentration [5] of 1 µM. The activity at 1 µM (PMN granulocytes) was 68% and the Lethal dose (toxicity, Irwin's test) was 285 mg/kg.
Compound `C1CN(c2nc(NC3CC3)nc(C3CC3)n2)CCO1.Cl` [Compound 3, 2-cyclopropyl-4-cyclopropylamino-6-morpholino-1,3,5-triazine hydrochloride] has an ED50 [1] of 0.1 µmol/kg, an ED50 [2] of 0.03 µmol/kg and an ED50 [3] of 0.07 µmol/kg. It also gave an ED30 [4, 6] of 0.8 µmol/kg, an ED30 [4, 7] of 0.4 µmol/kg and a minimal effective concentration [5] of 0.032 µM. For the same compound, the activity at 1 µM (PMN granulocytes) was 39% and the Lethal dose (toxicity, Irwin's test) was 297.8 mg/kg.
Compound `C1CC(c2nc(NC3CC3)nc(N3CCOCC3)n2)C1` [Compound 4, 2-cyclobutyl-4-cyclopropylamino-6-morpholino-1,3,5-triazine] has an ED50 [1] of 0.03 µmol/kg, an ED50 [2] of 0.004 µmol/kg and an ED50 [3] of 0.03 µmol/kg. It also gave an ED30 [4, 6] of 9 µmol/kg, an ED30 [4, 7] of 10 µmol/kg and a minimal effective concentration [5] of 0.32 µM. For the same compound, the activity at 1 µM (PMN granulocytes) was 45% and the Lethal dose (toxicity, Irwin's test) was 165 mg/kg.
Compound `CCCc1nc(NC2CC2)nc(N2CCC(O)CC2)n1` [Compound 5] has an ED50 [1] of 0.1 µmol/kg, an ED50 [2] of 0.06 µmol/kg and an ED50 [3] of 0.1 µmol/kg. For the same compound, the ED30 [4, 6] was 3.1 µmol/kg, the ED30 [4, 7] was 27 µmol/kg and the minimal effective concentration [5] was 0.32 µM. It also gave an activity at 1 µM (PMN granulocytes) of 74% and a Lethal dose (toxicity, Irwin's test) of 277.4 mg/kg.
`CCCc1nc(NC2CC2)nc(N(CCO)CCO)n1` [Compound 6] showed an ED50 [1] of 0.1 µmol/kg, an ED50 [2] of 0.1 µmol/kg and an ED50 [3] of 0.3 µmol/kg. It also gave an ED30 [4, 6] of 12 µmol/kg, an ED30 [4, 7] of 9 µmol/kg and a minimal effective concentration [5] of 1 µM. It also gave an activity at 1 µM (PMN granulocytes) of 55% and a Lethal dose (toxicity, Irwin's test) of 635.6 mg/kg.
In the case of `OCCN(CCO)c1nc(NC2CC2)nc(C2CC2)n1` [Compound 7], the ED50 [1] is reported as 0.4 µmol/kg, the ED50 [2] is reported as 0.2 µmol/kg and the ED50 [3] is reported as 0.7 µmol/kg. The ED30 [4, 6] was 7.7 µmol/kg, the ED30 [4, 7] was 11 µmol/kg and the minimal effective concentration [5] was 0.32 µM. For the same compound, the activity at 1 µM (PMN granulocytes) was 54% and the Lethal dose (toxicity, Irwin's test) was 279.3 mg/kg.
`CCCc1nc(NC2CC2)nc(N2CC3CCC(C2)O3)n1` [Compound 11] gave an ED50 [1] of 0.1 µmol/kg, an ED50 [2] of 0.1 µmol/kg and an ED50 [3] of 0.09 µmol/kg. For the same compound, the ED30 [4, 6] was 0.5 µmol/kg, the ED30 [4, 7] was 0.4 µmol/kg and the minimal effective concentration [5] was 1 µM. The activity at 1 µM (PMN granulocytes) was 44% and the Lethal dose (toxicity, Irwin's test) was 325.8 mg/kg.
`CC(C)c1nc(NC2CC2)nc(N2CC3CCC(C2)O3)n1` [Compound 12] showed an ED50 [1] of 0.06 µmol/kg, an ED50 [2] of 0.04 µmol/kg and an ED50 [3] of 0.2 µmol/kg. It also gave an ED30 [4, 6] of 2.5 µmol/kg, an ED30 [4, 7] of 3 µmol/kg and a minimal effective concentration [5] of 0.1 µM. The activity at 1 µM (PMN granulocytes) was 36% and the Lethal dose (toxicity, Irwin's test) was 325.8 mg/kg.
Compound `OC1CN(c2nc(NC3CC3)nc(C3CC3)n2)C1` [Compound 13] has an ED50 [1] of 0.6 µmol/kg, an ED50 [2] of 0.1 µmol/kg and an ED50 [3] of 1.3 µmol/kg. It also gave an ED30 [4, 6] of 9 µmol/kg, an ED30 [4, 7] of 4 µmol/kg and a minimal effective concentration [5] of 1 µM. It also gave an activity at 1 µM (PMN granulocytes) of 79% and a Lethal dose (toxicity, Irwin's test) of 247.3 mg/kg.
With `COC1CN(c2nc(NC3CC3)nc(C3CC3)n2)C1` [Compound 14] the ED50 [1] was 0.2 µmol/kg, the ED50 [2] was 0.09 µmol/kg and the ED50 [3] was 0.5 µmol/kg. The ED30 [4, 6] was 16 µmol/kg, the ED30 [4, 7] was 12 µmol/kg and the minimal effective concentration [5] was 1 µM. The activity at 1 µM (PMN granulocytes) was 51% and the Lethal dose (toxicity, Irwin's test) was 156.8 mg/kg.
In the case of `C1CC1Nc1nc(C2CC2)nc(N2CC3CCC(C2)O3)n1` [Compound 16], the ED50 [1] is reported as 0.009 µmol/kg, the ED50 [2] is reported as 0.009 µmol/kg and the ED50 [3] is reported as 0.05 µmol/kg. It also gave an ED30 [4, 6] of 1.5 µmol/kg, an ED30 [4, 7] of 2 µmol/kg and a minimal effective concentration [5] of 0.1 µM. The activity at 1 µM (PMN granulocytes) was 42% and the Lethal dose (toxicity, Irwin's test) was 194 mg/kg.
